Here are results for 25 compounds from patent publication US10927123B2, “Modulators of the beta-3 adrenergic receptor useful for the treatment or prevention of disorders related thereto” (Arena Pharmaceuticals, Inc., priority 2016, dated 2021).

pIC50: −log10 of the molar value.

This experiment deals with Beta-3 Adrenergic Receptor (Homo sapiens (Human), UniProt P13945). The experiment in a line: HTRF cAMP antagonist assay (IC50 determination). Conditions: CHO-K1 cells stably expressing recombinant receptor; antagonism of isoproterenol at EC90; cAMP readout. The format is cell-based. In short, it runs like this:
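CHO-K1 cells stably expressing the recombinant receptor were preincubated with compound (10-point, 5-fold dilutions; top final typically 10 or 100 μM) in PBS with 1 mM IBMX, then stimulated with isoproterenol at its EC90 for 1 h at room temperature. cAMP was read by HTRF against an on-plate standard curve.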
Background: Time-resolved FRET reads energy transfer from a long-lived donor to a nearby acceptor.

Chain of Beta-3 Adrenergic Receptor (P13945 whole entry, species assumed): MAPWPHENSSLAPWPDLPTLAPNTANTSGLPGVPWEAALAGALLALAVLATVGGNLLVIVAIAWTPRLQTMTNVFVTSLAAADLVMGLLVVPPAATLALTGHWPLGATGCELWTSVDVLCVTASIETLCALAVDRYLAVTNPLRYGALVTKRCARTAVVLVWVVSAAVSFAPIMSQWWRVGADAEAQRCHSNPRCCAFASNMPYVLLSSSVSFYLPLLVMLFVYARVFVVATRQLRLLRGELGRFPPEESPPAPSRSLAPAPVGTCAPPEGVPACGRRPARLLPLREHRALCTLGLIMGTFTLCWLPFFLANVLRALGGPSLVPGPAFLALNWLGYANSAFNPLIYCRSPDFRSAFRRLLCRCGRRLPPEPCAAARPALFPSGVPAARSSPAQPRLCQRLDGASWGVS

The term pIC50 denotes the IC50 on a negative log10 scale, so that one unit is a factor of ten. Turning to `COc1ccc(S(=O)(=O)N2CCC3(CC2)C[C@H](NC[C@H](O)COc2cccc(S(=O)(=O)C(C)(C)CO)c2)CO3)cc1-c1ccc(CN)cc1` [Compound 223, 2-(3-((S)-3-((S)-8-(4′-(aminomethyl)-6-methoxybiphenyl-3-ylsulfonyl)-1-oxa-8-azaspiro[4.5]decan-3-ylamino)-2-hydroxypropoxy)phenylsulfonyl)-2-methylpropan-1-ol], the pIC50 is 7.08.

On to `CCOc1ccc(-c2ccc(C3(N)CC3)cc2)cc1S(=O)(=O)N1CCC2(CC1)C[C@H](NC[C@H](O)COc1cccc(S(=O)(=O)C3CC3)c1)CO2` [Compound 252], for which the negative-log IC50 (pIC50) is 7.53.

Regarding `O=S(=O)(CCO)c1cccc(OC[C@@H](O)CN[C@H]2COC3(CCN(S(=O)(=O)c4cccc(-c5ncccc5F)c4)CC3)C2)c1` [Compound 126, (S)-1-((R)-8-(3-(3-fluoropyridin-2-yl)phenylsulfonyl)-1-oxa-8-azaspiro[4.5]decan-3-ylamino)-3-(3-(2-hydroxyethylsulfonyl)phenoxy)propan-2-ol], the negative logarithm of the IC50 (pIC50) was 6.90.

For `CS(=O)(=O)c1cccc(OC[C@@H](O)CNC2COC3(CCN(S(=O)(=O)c4cc5ccccc5o4)CC3)C2)c1` (stereo partly drawn) [Compound 60, (2S)-1-(8-(benzofuran-2-ylsulfonyl)-1-oxa-8-azaspiro[4.5]decan-3-ylamino)-3-(3-(methylsulfonyl)phenoxy)propan-2-ol], the pIC50 is 7.76.

As to `CCS(=O)(=O)c1cccc(OC[C@@H](O)CNC2COC3(CCN(S(=O)(=O)c4ccc5ccccc5c4)CC3)C2)c1` (stereo partly drawn) [Compound 15, (2S)-1-(3-(ethylsulfonyl)phenoxy)-3-(8-(naphthalen-2-ylsulfonyl)-1-oxa-8-azaspiro[4.5]decan-3-ylamino)propan-2-ol], the pIC50 was 8.24.

Take `CCOc1ccc(-c2ccc(CCNC(C)=O)cc2)cc1S(=O)(=O)N1CCC2(CC1)C[C@@H](NC[C@H](O)COc1cccc(S(=O)(=O)C3(CO)CC3)c1)CO2` [Compound 175, N-(2-(4′-ethoxy-3′-((R)-3-((S)-2-hydroxy-3-(3-(1-(hydroxymethyl)cyclopropylsulfonyl)phenoxy)propylamino)-1-oxa-8-azaspiro[4.5]decan-8-ylsulfonyl)biphenyl-4-yl)ethyl)acetamide]: the pIC50 was 6.15.

`O=S(=O)(Cc1ccccc1)c1cccc(OC[C@@H](O)CNC2COC3(CCN(S(=O)(=O)c4ccc5ccccc5c4)CC3)C2)c1` (stereo partly drawn) [Compound 20, (2S)-1-(3-(benzylsulfonyl)phenoxy)-3-(8-(naphthalen-2-ylsulfonyl)-1-oxa-8-azaspiro[4.5]decan-3-ylamino)propan-2-ol]: the pIC50 was 7.12.

For the compound `COc1cc(-c2ccc(CN)cc2)cc(S(=O)(=O)N2CCC3(CC2)C[C@H](NC[C@H](O)COc2cccc(S(=O)(=O)C4CC4)c2)CO3)c1` [Compound 229, (S)-1-((S)-8-(4′-(aminomethyl)-5-methoxybiphenyl-3-ylsulfonyl)-1-oxa-8-azaspiro[4.5]decan-3-ylamino)-3-(3-(cyclopropylsulfonyl)phenoxy)propan-2-ol], the pIC50 is 7.94.

Take `CCCNCc1ccc(-c2cccc(S(=O)(=O)N3CCC4(CC3)C[C@H](NC[C@H](O)COc3cccc(S(=O)(=O)C5(CO)CC5)c3)CO4)c2)cc1` [Compound 244, (S)-1-(3-(1-(hydroxymethyl)cyclopropylsulfonyl)phenoxy)-3-((S)-8-(4′-((propylamino)methyl)biphenyl-3-ylsulfonyl)-1-oxa-8-azaspiro[4.5]decan-3-ylamino)propan-2-ol]: the pIC50 is 7.56.

Regarding `COc1ccc(S(=O)(=O)N2CCC3(CC2)C[C@H](NC[C@H](O)COc2cccc(S(=O)(=O)C4(CO)CC4)c2)CO3)cc1Br` [Compound 201, (S)-1-((S)-8-(3-bromo-4-methoxyphenylsulfonyl)-1-oxa-8-azaspiro[4.5]decan-3-ylamino)-3-(3-(1-(hydroxymethyl)cyclopropylsulfonyl)phenoxy)propan-2-ol], the pIC50 is 7.38.

As to `CCn1cc(S(=O)(=O)N2CCC3(CC2)C[C@@H](NC[C@H](O)COc2cccc(S(=O)(=O)C4CC4)c2)CO3)c(=O)c2cc(F)ccc21` [Compound 314, 3-((R)-3-((S)-3-(3-(cyclopropylsulfonyl)phenoxy)-2-hydroxypropylamino)-1-oxa-8-azaspiro[4.5]decan-8-ylsulfonyl)-1-ethyl-6-fluoroquinolin-4(1H)-one], the pIC50 was 6.57.

Turning to `O=S(=O)(c1cccc(OC[C@@H](O)CN[C@H]2COC3(CCN(S(=O)(=O)c4cnc5c(F)cccc5c4O)CC3)C2)c1)C1CC1` [Compound 328, 3-((R)-3-((S)-3-(3-(cyclopropylsulfonyl)phenoxy)-2-hydroxypropylamino)-1-oxa-8-azaspiro[4.5]decan-8-ylsulfonyl)-8-fluoroquinolin-4-ol], the pIC50 is 7.45.

`CS(=O)(=O)c1cccc(OC[C@@H](O)CN[C@H]2COC3(CCN(S(=O)(=O)c4cnc5cc[nH]c5c4)CC3)C2)c1` [Compound 320, (S)-1-((R)-8-(1H-pyrrolo[3,2-b]pyridin-6-ylsulfonyl)-1-oxa-8-azaspiro[4.5]decan-3-ylamino)-3-(3-(methylsulfonyl)phenoxy)propan-2-ol]: the pIC50 is 7.95.

In the case of `CCC(C)(C)NCc1ccc(-c2cccc(S(=O)(=O)N3CCC4(CC3)C[C@H](NC[C@H](O)COc3cccc(S(=O)(=O)C5(CO)CC5)c3)CO4)c2)cc1` [Compound 241, (S)-1-(3-(1-(hydroxymethyl)cyclopropylsulfonyl)phenoxy)-3-((S)-8-(4′-((tert-pentylamino)methyl)biphenyl-3-ylsulfonyl)-1-oxa-8-azaspiro[4.5]decan-3-ylamino)propan-2-ol], the pIC50 was 7.68.

In the case of `O=S(=O)(c1cccc(-c2ccc(CN3CCOCC3)cc2)c1)N1CCC2(CC1)C[C@@H](NC[C@H](O)COc1cccc(S(=O)(=O)C3(CO)CC3)c1)CO2` [Compound 266, (S)-1-(3-(1-(hydroxymethyl)cyclopropylsulfonyl)phenoxy)-3-((R)-8-(4′-(morpholinomethyl)biphenyl-3-ylsulfonyl)-1-oxa-8-azaspiro[4.5]decan-3-ylamino)propan-2-ol], the pIC50 is 5.89.

On to `CCOc1ccc(S(=O)(=O)N2CCC3(CC2)C[C@H](NC[C@H](O)COc2cccc(S(=O)(=O)C4(CO)CC4)c2)CO3)cc1-c1ccc(CN)cc1` [Compound 237, (S)-1-((S)-8-(4′-(aminomethyl)-6-ethoxybiphenyl-3-ylsulfonyl)-1-oxa-8-azaspiro[4.5]decan-3-ylamino)-3-(3-(1-(hydroxymethyl)cyclopropylsulfonyl)phenoxy)propan-2-ol], for which the pIC50 was 7.09.

Turning to `NCc1ccc(-c2ccc(F)c(S(=O)(=O)N3CCC4(CC3)C[C@@H](NC[C@H](O)COc3cccc(S(=O)(=O)C5(CO)CC5)c3)CO4)c2)cc1` [Compound 169, (S)-1-((R)-8-(4′-(aminomethyl)-4-fluorobiphenyl-3-ylsulfonyl)-1-oxa-8-azaspiro[4.5]decan-3-ylamino)-3-(3-(1-(hydroxymethyl)cyclopropylsulfonyl)phenoxy)propan-2-ol], the pIC50 is 7.76.

On to `CS(=O)(=O)c1cccc(OC[C@@H](O)CN[C@@H]2COC3(CCN(S(=O)(=O)c4cnc5ccccc5c4)CC3)C2)c1` [Compound 85, (S)-1-(3-(methylsulfonyl)phenoxy)-3-((S)-8-(quinolin-3-ylsulfonyl)-1-oxa-8-azaspiro[4.5]decan-3-ylamino)propan-2-ol], for which the negative logarithm of the IC50 (pIC50) was 7.75.

Consider `O=S(=O)(CCO)c1cccc(OC[C@@H](O)CN[C@H]2COC3(CCN(S(=O)(=O)c4ccc5c(c4)CCCO5)CC3)C2)c1` [Compound 83, (S)-1-((R)-8-(chroman-6-ylsulfonyl)-1-oxa-8-azaspiro[4.5]decan-3-ylamino)-3-(3-(2-hydroxyethylsulfonyl)phenoxy)propan-2-ol], for which the pIC50 was 7.27.

On to `COCS(=O)(=O)c1cccc(OC[C@@H](O)CN[C@H]2COC3(CCN(S(=O)(=O)c4cnc5ccccc5c4)CC3)C2)c1` [Compound 141, (S)-1-(3-(methoxymethylsulfonyl)phenoxy)-3-((R)-8-(quinolin-3-ylsulfonyl)-1-oxa-8-azaspiro[4.5]decan-3-ylamino)propan-2-ol], for which the pIC50 is 7.93.

Consider `CCS(=O)(=O)c1cccc(OC[C@@H](O)CN[C@@H]2COC3(CCN(S(=O)(=O)c4ccc(OC)c(-c5ccc(C6(N)CC6)cc5)c4)CC3)C2)c1` [Compound 261, (S)-1-((S)-8-(4′-(1-aminocyclopropyl)-6-methoxybiphenyl-3-ylsulfonyl)-1-oxa-8-azaspiro[4.5]decan-3-ylamino)-3-(3-(ethylsulfonyl)phenoxy)propan-2-ol], for which the pIC50 was 7.41.

Regarding `CCOc1ccc(-c2ccc(CN)cc2)cc1S(=O)(=O)N1CCC2(CC1)C[C@H](NC[C@H](O)COc1cccc(S(C)(=O)=O)c1)CO2` [Compound 231, (S)-1-((S)-8-(4′-(aminomethyl)-4-ethoxybiphenyl-3-ylsulfonyl)-1-oxa-8-azaspiro[4.5]decan-3-ylamino)-3-(3-(methylsulfonyl)phenoxy)propan-2-ol], the pIC50 is 7.71.

For the compound `CS(=O)(=O)c1cccc(OC[C@@H](O)CNC2COC3(CCN(S(=O)(=O)c4ccc5c(c4)CCCO5)CC3)C2)c1` (stereo partly drawn) [Compound 28, (2S)-1-(8-(chroman-6-ylsulfonyl)-1-oxa-8-azaspiro[4.5]decan-3-ylamino)-3-(3-(methylsulfonyl)phenoxy)propan-2-ol], the pIC50 was 7.73.

As to `CS(=O)(=O)c1cccc(OC[C@@H](O)CNC2COC3(CCN(S(=O)(=O)c4cccc(-c5ccc(N)nc5)c4)CC3)C2)c1` (stereo partly drawn) [Compound 70, (2S)-1-(8-(3-(6-aminopyridin-3-yl)phenylsulfonyl)-1-oxa-8-azaspiro[4.5]decan-3-ylamino)-3-(3-(methylsulfonyl)phenoxy)propan-2-ol], the pIC50 is 7.61.

For `CS(=O)(=O)c1cccc(OC[C@@H](O)CNC2COC3(CCN(S(=O)(=O)c4ccc5cc(Cl)ccc5c4)CC3)C2)c1` (stereo partly drawn) [Compound 73, (2S)-1-(8-(6-chloronaphthalen-2-ylsulfonyl)-1-oxa-8-azaspiro[4.5]decan-3-ylamino)-3-(3-(methylsulfonyl)phenoxy)propan-2-ol], the pIC50 was 7.62.
